Measured values from ChEMBL document CHEMBL6153135, “Rational Design of a Potent, Selective, and Metabolically Stable CDK9 Inhibitor to Counteract Osimertinib Resistance through Mcl-1 Suppression and Enhanced BRD4 Co-Targeting” (J Med Chem, 2025).
The source made the active and inactive calls. The rule behind the calls is not given here.

Key:
[1] = molecular target: Cyclin-dependent kinase 9 (Homo sapiens) (UniProt P50750); test: Inhibition of CDK9 in human Osimertinib-resistant HCC827 cells assessed as decrease in Mcl-1 mRNA level by RNA-Seq analysis; type: cell-based; conditions: Osimertinib-resistant HCC827 cell
Sequence of Cyclin-dependent kinase 9 (Homo sapiens) (P50750 whole entry): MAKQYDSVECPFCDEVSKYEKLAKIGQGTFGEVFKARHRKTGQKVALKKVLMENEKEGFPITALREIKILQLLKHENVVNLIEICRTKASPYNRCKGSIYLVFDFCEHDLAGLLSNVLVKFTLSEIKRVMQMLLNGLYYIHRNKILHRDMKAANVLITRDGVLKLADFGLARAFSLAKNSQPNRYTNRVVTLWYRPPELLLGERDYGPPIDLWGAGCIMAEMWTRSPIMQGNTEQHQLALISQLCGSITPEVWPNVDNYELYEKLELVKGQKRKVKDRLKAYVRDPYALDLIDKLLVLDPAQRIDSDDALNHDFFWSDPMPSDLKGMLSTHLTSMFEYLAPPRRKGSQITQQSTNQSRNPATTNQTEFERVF

[2] = Clearance in Sprague-Dawley rat at 20 mg/kg, po; type: ADME, organism-based; conditions: in vivo
[3] = Toxicity in BALB-c mouse xenografted with human Osimertinib-resistant HCC827 cells assessed as decrease in body weight at 5 mg/kg, iv; type: organism-based; conditions: in vivo
[4] = molecular target: Homeodomain-interacting protein kinase 4 (Homo sapiens) (UniProt Q8NE63); test: Inhibition of HIPK4 (unknown origin) at 100 nM preincubated for 10 mins followed by substrate/ATP measured after 60 mins by ADP-Glo assay relative to control; conditions: time 70.0 min
Sequence of Homeodomain-interacting protein kinase 4 (Homo sapiens) (Q8NE63 whole entry): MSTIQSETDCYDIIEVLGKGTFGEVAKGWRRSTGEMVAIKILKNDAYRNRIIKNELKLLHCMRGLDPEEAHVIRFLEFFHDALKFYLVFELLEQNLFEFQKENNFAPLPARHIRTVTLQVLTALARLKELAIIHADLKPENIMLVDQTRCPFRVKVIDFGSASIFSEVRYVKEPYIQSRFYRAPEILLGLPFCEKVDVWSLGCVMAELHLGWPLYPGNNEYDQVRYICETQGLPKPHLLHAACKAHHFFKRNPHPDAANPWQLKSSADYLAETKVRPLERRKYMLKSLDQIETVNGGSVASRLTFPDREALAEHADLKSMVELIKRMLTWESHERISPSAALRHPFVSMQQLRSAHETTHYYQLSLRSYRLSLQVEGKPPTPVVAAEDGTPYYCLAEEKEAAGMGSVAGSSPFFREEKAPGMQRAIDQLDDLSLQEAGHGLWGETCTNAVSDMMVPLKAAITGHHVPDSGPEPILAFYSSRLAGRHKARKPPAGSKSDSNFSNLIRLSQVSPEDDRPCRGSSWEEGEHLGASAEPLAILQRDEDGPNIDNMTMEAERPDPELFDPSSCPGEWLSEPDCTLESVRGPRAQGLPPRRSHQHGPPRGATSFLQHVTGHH

[5] = test system: NCI-H1975; test: Antitumor activity against human NCI-H1975 cells xenografted in BALB-c nude mouse assessed as tumor growth inhibition at 5 mg/kg, iv; type: functional, organism-based
[6] = Selectivity ratio of IC50 for anti-proliferative activity against human NCI-H1975 cells to IC50 for anti-proliferative activity against human NCI-H1975 cells in presence of JQ1; type: functional
[7] = test system: 16HBE14o-; test: Anti-proliferative activity against human 16-HBE cells assessed as cell inhibition measured after 72 hrs by MTT assay; type: functional, cell-based
[8] = test system: Mus musculus; test: In vivo inhibition of CDK9 in BALB-c nude mouse xenografted with human Osimertinib-resistant HCC827 cells assessed as decrease in Mcl-1 level in tumor tissue at 5 mg/kg, iv in presence of JQ1 by Western blot analysis; type: functional, organism-based
[9] = test system: NCI-H1975; test: Anti-proliferative activity against human NCI-H1975 cells assessed as cell inhibition measured after 72 hrs by MTT assay; type: functional, cell-based; conditions: NCI-H1975, 72 h
[10] = test system: Lung adenocarcinoma organoid; test: Anti-tumor activity against Osimertinib-resistant patient (#0416)-derived human Lung adenocarcinoma organoid assessed as inhibition of cell viability measured after 96 hrs; type: functional, tissue-based; conditions: Neoplasm
[11] = Metabolic stability in pig liver microsomes assessed as clearance measured for 5 to 60 mins by LC-MS/MS analysis; type: ADME, Sus scrofa, Microsome; conditions: time 5-60 min, read-out: CLH
[12] = test system: Lung adenocarcinoma organoid; test: Anti-tumor activity against Osimertinib-resistant patient (#0416)-derived human Lung adenocarcinoma organoid assessed as inhibition of cell viability measured after 96 hrs relative to control; type: functional, Neoplasm
[13] = test system: Lung adenocarcinoma organoid; test: Anti-tumor activity against patient (#2223)-derived human Lung adenocarcinoma organoid assessed as inhibition of cell viability measured after 96 hrs; type: functional, tissue-based; conditions: Neoplasm
[14] = Antitumor activity against human Osimertinib-resistant HCC827 cells xenografted in BALB-c nude mouse assessed as tumor growth inhibition at 5 mg/kg, iv in presence of JQ1 relative to control; type: functional; conditions: Osimertinib-resistant HCC827 cell, read-out: TGI
[15] = test system: NCI-H1975; test: Antitumor activity against human NCI-H1975 cells xenografted in BALB-c nude mouse assessed as reduction in Ki-67 expression at 15 mg/kg, iv administered on every two days by IHC analysis; type: functional, organism-based
[16] = molecular target: Cyclin-dependent kinase 9 (Homo sapiens) (UniProt P50750); test: Inhibition of CDK9 in human Osimertinib-resistant HCC827 cells assessed as decrease in Mcl-1 level at 100 nM incubated for 12 hrs in presence of JQ1 by Western blot analysis; type: cell-based; conditions: Osimertinib-resistant HCC827 cell
[17] = molecular target: Cyclin-dependent kinase 9 (Homo sapiens) (UniProt P50750); test: Inhibition of CDK9 in human Osimertinib-resistant HCC827 cells assessed as decrease in Mcl-1 mRNA level in presence of JQ1 by RNA-Seq analysis; type: cell-based; conditions: Osimertinib-resistant HCC827 cell
[18] = test system: Osimertinib-resistant HCC827 cell; test: Inhibition of colony formation in human Osimertinib-resistant HCC827 cells at 12.5 nM measured after 14 days in presence of JQ1 by crystal violet staining based analysis; type: functional; conditions: time 14.0 day
[19] = AUC (0 to t) in Sprague-Dawley rat at 2 mg/kg, iv; type: ADME, organism-based; conditions: in vivo
[20] = test system: Osimertinib-resistant NCI-H1975 cell; test: Induction of apoptosis in human Osimertinib-resistant NCI-H1975 cells assessed as necrotic cells at 2 uM incubated for 16 hrs by Annexin V-FITC/PI staining based flow cytometry (reference value: 1.17 %); type: functional
[21] = test system: Osimertinib-resistant HCC827 cell; test: Inhibition of Hippo signaling in human Osimertinib-resistant HCC827 cells in presence of JQ1 by KEGG analysis; type: cell-based
[22] = molecular target: Cyclin-dependent kinase 2/cyclin E1 (Homo sapiens) (UniProt P24864+P24941); test: Inhibition of CDK2/cyclin E1 (unknown origin) at 100 nM preincubated for 10 mins followed by substrate/ATP measured after 60 mins by ADP-Glo assay relative to control; type: protein-complex assay; conditions: time 70.0 min
[23] = test system: HCC827; test: Anti-proliferative activity against human HCC827 cells assessed as cell inhibition measured after 72 hrs in presence of 500 nM JQ1 by MTT assay; type: functional, cell-based; conditions: HCC827, 72 h
[24] = Tmax in Sprague-Dawley rat at 20 mg/kg, po; type: ADME, organism-based; conditions: in vivo
[25] = Drug concentration in plasma of BALB-c nude mouse xenografted with human NCI-H1975 cells at 15 mg/kg, iv measured after 30 mins by LC-MS/MS analysis; type: ADME, organism-based
[26] = Metabolic stability in monkey liver microsomes assessed as half life measured for 5 to 60 mins by LC-MS/MS analysis; type: ADME, Macaca mulatta, Microsome; conditions: rhesus monkey, time 5-60 min
[27] = molecular target: CDK7/Cyclin H/MNAT1 (Homo sapiens) (UniProt P51946+P50613+P51948); test: Inhibition of CDK7/Cyclin H/MAT1 (unknown origin) at 100 nM preincubated for 10 mins followed by substrate/ATP measured after 60 mins by ADP-Glo assay relative to control; type: protein-complex assay; conditions: time 70.0 min
[28] = molecular target: CDK9/cyclin T1 (Homo sapiens, UniProt P50750); test: Inhibition of CDK9/cyclin T1 (unknown origin) preincubated for 10 mins followed by substrate/ATP measured after 60 mins by ADP-Glo assay; type: protein-complex assay
Sequence of CDK9/cyclin T1 (O60563 whole entry): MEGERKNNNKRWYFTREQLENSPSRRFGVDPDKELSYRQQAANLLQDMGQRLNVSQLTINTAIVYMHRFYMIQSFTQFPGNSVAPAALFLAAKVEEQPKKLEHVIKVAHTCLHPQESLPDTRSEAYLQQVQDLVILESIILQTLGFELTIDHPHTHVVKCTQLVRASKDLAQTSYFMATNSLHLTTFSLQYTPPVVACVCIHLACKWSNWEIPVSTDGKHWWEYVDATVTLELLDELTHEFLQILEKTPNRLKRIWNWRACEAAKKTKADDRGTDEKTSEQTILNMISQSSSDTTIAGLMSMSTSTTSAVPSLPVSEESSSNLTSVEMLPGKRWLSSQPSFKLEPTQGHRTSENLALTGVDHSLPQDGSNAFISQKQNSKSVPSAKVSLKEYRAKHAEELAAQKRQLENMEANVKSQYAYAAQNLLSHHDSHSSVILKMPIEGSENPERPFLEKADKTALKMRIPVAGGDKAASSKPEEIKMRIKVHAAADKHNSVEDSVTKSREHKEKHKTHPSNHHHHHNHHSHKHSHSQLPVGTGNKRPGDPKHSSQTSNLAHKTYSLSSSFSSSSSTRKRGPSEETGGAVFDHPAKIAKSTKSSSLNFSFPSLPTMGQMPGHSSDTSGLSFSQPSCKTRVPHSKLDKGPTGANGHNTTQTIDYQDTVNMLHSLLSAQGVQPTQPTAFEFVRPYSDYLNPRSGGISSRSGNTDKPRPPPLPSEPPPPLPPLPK
Sequence of CDK9/cyclin T1 (P50750 whole entry): as the sequence (P50750 whole entry) above

[29] = Oral bioavailability in BALB/c mouse at 15 mg/kg; type: ADME, organism-based; conditions: in vivo
[30] = test system: NCI-H1975; test: Antitumor activity against human NCI-H1975 cells xenografted in BALB-c nude mouse assessed as tumor growth inhibition at 5 mg/kg, iv in presence of JQ1 relative to control; type: functional; conditions: read-out: TGI
[31] = test system: A549; test: Anti-proliferative activity against human A549 cells assessed as cell inhibition measured after 72 hrs by MTT assay; type: functional, cell-based; conditions: A549, 72 h
[32] = test system: Osimertinib-resistant NCI-H1975 cell; test: Anti-proliferative activity against human Osimertinib-resistant NCI-H1975 cells assessed as cell inhibition measured after 72 hrs in presence of 100 nM JQ1 by MTT assay; type: functional, cell-based
[33] = Toxicity in BALB-c mouse xenografted with human NCI-H1975 cells assessed as decrease in body weight at 5 mg/kg, iv; type: organism-based; conditions: in vivo
[34] = test system: Osimertinib-resistant HCC827 cell; test: Inhibition of DNA replication in human Osimertinib-resistant HCC827 cells by KEGG analysis; type: functional, cell-based
[35] = Cmax in BALB/c mouse at 15 mg/kg, po; conditions: in vivo
[36] = test system: HCC827; test: Anti-proliferative activity against human HCC827 cells assessed as cell inhibition measured after 72 hrs in presence of 100 nM JQ1 by MTT assay; type: functional, cell-based; conditions: HCC827, 72 h
[37] = Cmax in Sprague-Dawley rat at 20 mg/kg, po; conditions: in vivo

## CC(=O)N1CCC(NC(=O)c2ccc3cc2OCCCCCCOc2cc(ccc2F)-c2nc(ncc2F)N3)CC1
[1]
  inhibition: Active
[2]
  CL/F: 63.3 mL/min/kg
[3]
  Activity: Non-toxic
[4]
  inhibition: 87.6%
[5]
  inhibition: inactive
[6]
  Ratio IC50: 10
[7]
  IC50: 0.48 µM
[8]
  inhibition: Active
[9]
  IC50: 0.11 µM
[10]
  IC50: < 0.01 µM
[11]
  microsomal CLint: 35.3 µL/min/mg
[12]
  Imax: >98%
[13]
  IC50: < 0.05 µM
[14]
  inhibition in vivo at 5 mg/kg: 71.5%
[15]
  Activity: Active
[16]
  inhibition: Active
[17]
  inhibition: Active
[18]
  inhibition: Active
[19]
  AUC(0-t): 2530 ng·h/mL
[20]
  Activity: 0.97%
[21]
  inhibition: Active
[22]
  inhibition: 50.2%
[23]
  IC50: 0.0097 µM
[24]
  Tmax: 49.8 min
[25]
  concentration at 0.5 h: 2450 ng/mL
[26]
  half-life: 59.1 min
[27]
  inhibition: 11.9%
[28]
  IC50: 0.0012 µM
[29]
  bioavailability: 25.8%
[30]
  inhibition in vivo at 5 mg/kg: 60%
[31]
  IC50: 0.14 µM
[32]
  IC50: 0.0268 µM
[33]
  Activity: Non-toxic
[34]
  inhibition: Active
[35]
  Cmax: 344.1 ng/mL
[36]
  IC50: 0.0306 µM
[37]
  Cmax: 775.6 ng/mL
